The structures appear in SMILES notation.

This assay deals with CK2A1 (CK2α/β) (Homo sapiens, UniProt P68400). The assay can be described thus: CK2 kinase assay, CK2A1 (CK2α/β). It is filed as biochemical. Particulars: Table A; read-out: CK2A1 (CK2α/β) (IC50).
Chain of CK2A1 (CK2α/β) (P68400 whole entry, species assumed): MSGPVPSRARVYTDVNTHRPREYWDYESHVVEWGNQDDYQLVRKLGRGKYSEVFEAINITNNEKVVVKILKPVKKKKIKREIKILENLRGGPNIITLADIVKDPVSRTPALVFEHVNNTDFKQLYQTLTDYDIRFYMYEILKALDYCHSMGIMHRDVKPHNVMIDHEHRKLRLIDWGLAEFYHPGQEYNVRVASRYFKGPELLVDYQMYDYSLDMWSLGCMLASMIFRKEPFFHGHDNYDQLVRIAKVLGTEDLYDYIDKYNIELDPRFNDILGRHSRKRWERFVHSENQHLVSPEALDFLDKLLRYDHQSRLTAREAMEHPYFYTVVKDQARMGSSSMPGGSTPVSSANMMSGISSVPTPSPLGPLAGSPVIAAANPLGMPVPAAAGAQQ
Chain of CK2A1 (CK2α/β) (P67870 whole entry partner, species assumed): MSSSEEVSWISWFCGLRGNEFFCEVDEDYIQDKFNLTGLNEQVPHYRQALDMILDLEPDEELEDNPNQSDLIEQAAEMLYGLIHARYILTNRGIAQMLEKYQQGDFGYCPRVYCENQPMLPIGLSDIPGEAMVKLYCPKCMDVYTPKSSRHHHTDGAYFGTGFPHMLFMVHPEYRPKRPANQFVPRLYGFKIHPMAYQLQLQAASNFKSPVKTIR
For `N#Cc1cc(Nc2nc(NC3CC3)c3ncc(C#N)n3n2)c(Cl)c(N2CCN(C3CN(C(=O)[C@@H]4C[C@@H](O)CN4)C3)CC2)c1` [Example 498, 2-{[2-chloro-5-cyano-3-(4-{1-[(2S,4R)-4-hydroxypyrrolidine-2-carbonyl]azetidin-3-yl}piperazin-1-yl)phenyl]amino}-4-(cyclopropylamino)imidazo[2,1-f][1,2,4]triazine-7-carbonitrile], the IC50 worked out at 5.48 nM.
Next, `CC(C)(F)C(=O)N1CC(N2CCN(c3cc(C#N)cc(Nc4nc(NC5CC5)c5ncc(C#N)n5n4)c3Cl)CC2)C1` [Example 499, 2-[(2-chloro-5-cyano-3-{4-[1-(2-fluoro-2-methylpropanoyl)azetidin-3-yl]piperazin-1-yl}phenyl)amino]-4-(cyclopropylamino)imidazo[2,1-f][1,2,4]triazine-7-carbonitrile]: 3.93 nM; `N#Cc1cc(Nc2nc(NC3CC3)c3ncc(C#N)n3n2)c(Cl)c(N2CCN(C3CN(C(=O)C4(N)CC4)C3)CC2)c1` [Example 500, 2-[(3-{4-[1-(1-aminocyclopropanecarbonyl)azetidin-3-yl]piperazin-1-yl}-2-chloro-5-cyanophenyl)amino]-4-(cyclopropylamino)imidazo[2,1-f][1,2,4]triazine-7-carbonitrile]: 3.92 nM; `CC(C)(N)CC(=O)N1CC(N2CCN(c3cc(C#N)cc(Nc4nc(NC5CC5)c5ncc(C#N)n5n4)c3Cl)CC2)C1` [Example 501, 2-[(3-{4-[1-(3-amino-3-methylbutanoyl)azetidin-3-yl]piperazin-1-yl}-2-chloro-5-cyanophenyl)amino]-4-(cyclopropylamino)imidazo[2,1-f][1,2,4]triazine-7-carbonitrile]: 2.64 nM.
Next, `CC(C)(C)[C@@H](N)C(=O)N1CC(N2CCN(c3cc(C#N)cc(Nc4nc(NC5CC5)c5ncc(C#N)n5n4)c3Cl)CC2)C1` [Example 502, 2-{[3-(4-{1-[(2R)-2-amino-3,3-dimethylbutanoyl]azetidin-3-yl}piperazin-1-yl)-2-chloro-5-cyanophenyl]amino}-4-(cyclopropylamino)imidazo[2,1-f][1,2,4]triazine-7-carbonitrile]: 3.27 nM; `N#Cc1cc(Nc2nc(NC3CC3)c3ncc(C#N)n3n2)c(Cl)c(N2CCN(C3CN(C(=O)[C@@H]4C[C@H](F)CN4)C3)CC2)c1` [Example 503, 2-{[2-chloro-5-cyano-3-(4-{1-[(2S,4S)-4-fluoropyrrolidine-2-carbonyl]azetidin-3-yl}piperazin-1-yl)phenyl]amino}-4-(cyclopropylamino)imidazo[2,1-f][1,2,4]triazine-7-carbonitrile]: 3.67 nM.
With `N#Cc1cc(Nc2nc(NC3CC3)c3ncc(C#N)n3n2)c(Cl)c(N2CCN(C3CN(S(=O)(=O)C4CC4)C3)CC2)c1` [Example 504, 2-[(2-chloro-5-cyano-3-{4-[1-(cyclopropanesulfonyl)azetidin-3-yl]piperazin-1-yl}phenyl)amino]-4-(cyclopropylamino)imidazo[2,1-f][1,2,4]triazine-7-carbonitrile] the figure was 4.07 nM.
As to `CC(C)(C)[C@H](N)C(=O)N1CC(N2CCN(c3cc(C#N)cc(Nc4nc(NC5CC5)c5ncc(C#N)n5n4)c3Cl)CC2)C1` [Example 505, 2-{[3-(4-{1-[(2S)-2-amino-3,3-dimethylbutanoyl]azetidin-3-yl}piperazin-1-yl)-2-chloro-5-cyanophenyl]amino}-4-(cyclopropylamino)imidazo[2,1-f][1,2,4]triazine-7-carbonitrile], the IC50 came to 5.42 nM.
As for `N#Cc1cc(Nc2nc(NC3CC3)c3ncc(C#N)n3n2)c(Cl)c(N2CCN(C3CN(C(=O)C4CCC(=O)N4)C3)CC2)c1` (stereo not drawn) [Example 506, 2-[(2-chloro-5-cyano-3-{4-[1-(5-oxopyrrolidine-2-carbonyl)azetidin-3-yl]piperazin-1-yl}phenyl)amino]-4-(cyclopropylamino)imidazo[2,1-f][1,2,4]triazine-7-carbonitrile], the IC50 came to 4.33 nM.
Next, `N#Cc1cc(Nc2nc(NC3CC3)c3ncc(C#N)n3n2)c(Cl)c(N2CCN(C3CN(S(=O)(=O)CC(F)(F)F)C3)CC2)c1` [Example 507, 2-[(2-chloro-5-cyano-3-{4-[1-(2,2,2-trifluoroethanesulfonyl)azetidin-3-yl]piperazin-1-yl}phenyl)amino]-4-(cyclopropylamino)imidazo[2,1-f][1,2,4]triazine-7-carbonitrile]: 16.9 nM; `CCC(C)(O)CC(=O)N1CC(N2CCN(c3cc(C#N)cc(Nc4nc(NC5CC5)c5ncc(C#N)n5n4)c3Cl)CC2)C1` (stereo not drawn) [Example 508, 2-[(2-chloro-5-cyano-3-{4-[1-(3-hydroxy-3-methylpentanoyl)azetidin-3-yl]piperazin-1-yl}phenyl)amino]-4-(cyclopropylamino)imidazo[2,1-f][1,2,4]triazine-7-carbonitrile]: 4.73 nM; `N#Cc1cc(Nc2nc(NC3CC3)c3ncc(C#N)n3n2)c(Cl)c(N2CCN(C3CN(C(=O)C4CCC(O)CC4)C3)CC2)c1` (stereo not drawn) [Example 509, 2-[(2-chloro-5-cyano-3-{4-[1-(4-hydroxycyclohexane-carbonyl)azetidin-3-yl]piperazin-1-yl}phenyl)amino]-4-(cyclopropylamino)imidazo[2,1-f][1,2,4]triazine-7-carbonitrile]: 5.11 nM.
With `N#Cc1cc(Nc2nc(NC3CC3)c3ncc(C#N)n3n2)c(Cl)c(N2CCN(C3CN(C(=O)[C@H](O)C(F)(F)F)C3)CC2)c1` [Example 510, 2-{[2-chloro-5-cyano-3-(4-{1-[(2S)-3,3,3-trifluoro-2-hydroxypropanoyl]azetidin-3-yl}piperazin-1-yl)phenyl]amino}-4-(cyclopropylamino)imidazo[2,1-f][1,2,4]triazine-7-carbonitrile] the figure was 4.24 nM; with `CCOCCC(=O)N1CC(N2CCN(c3cc(C#N)cc(Nc4nc(NC5CC5)c5ncc(C#N)n5n4)c3Cl)CC2)C1` [Example 511, 2-[(2-chloro-5-cyano-3-{4-[1-(3-ethoxypropanoyl)azetidin-3-yl]piperazin-1-yl}phenyl)amino]-4-(cyclopropylamino)imidazo[2,1-f][1,2,4]triazine-7-carbonitrile], 4.62 nM.
For `N#Cc1cc(Nc2nc(NC3CC3)c3ncc(C#N)n3n2)c(Cl)c(N2CCN(C3CN(C(=O)C4CCC(O)CC4)C3)CC2)c1` (stereo not drawn) [Example 512, 2-[(2-chloro-5-cyano-3-{4-[1-(4-hydroxycyclohexane-carbonyl)azetidin-3-yl]piperazin-1-yl}phenyl)amino]-4-(cyclopropylamino)imidazo[2,1-f][1,2,4]triazine-7-carbonitrile], the IC50 is 5.8 nM.
With `CO[C@H](C)C(=O)N1CC(N2CCN(c3cc(C#N)cc(Nc4nc(NC5CC5)c5ncc(C#N)n5n4)c3Cl)CC2)C1` [Example 513, 2-{[2-chloro-5-cyano-3-(4-{1-[(2R)-2-methoxypropanoyl]azetidin-3-yl}piperazin-1-yl)phenyl]amino}-4-(cyclopropylamino)imidazo[2,1-f][1,2,4]triazine-7-carbonitrile] the figure was 3.08 nM; with `C[C@H](O)CC(=O)N1CC(N2CCN(c3cc(C#N)cc(Nc4nc(NC5CC5)c5ncc(C#N)n5n4)c3Cl)CC2)C1` [Example 514, 2-{[2-chloro-5-cyano-3-(4-{1-[(3S)-3-hydroxybutanoyl]azetidin-3-yl}piperazin-1-yl)phenyl]amino}-4-(cyclopropylamino)imidazo[2,1-f][1,2,4]triazine-7-carbonitrile], 3.9 nM.
With `CC1(C(=O)N2CC(N3CCN(c4cc(C#N)cc(Nc5nc(NC6CC6)c6ncc(C#N)n6n5)c4Cl)CC3)C2)COC1` [Example 515, 2-[(2-chloro-5-cyano-3-{4-[1-(3-methyloxetane-3-carbonyl)azetidin-3-yl]piperazin-1-yl}phenyl)amino]-4-(cyclopropylamino)imidazo[2,1-f][1,2,4]triazine-7-carbonitrile] the figure was 4.84 nM; with `CC(F)(F)C(=O)N1CC(N2CCN(c3cc(C#N)cc(Nc4nc(NC5CC5)c5ncc(C#N)n5n4)c3Cl)CC2)C1` [Example 516, 2-[(2-chloro-5-cyano-3-{4-[1-(2,2-difluoropropanoyl)azetidin-3-yl]piperazin-1-yl}phenyl)amino]-4-(cyclopropylamino)imidazo[2,1-f][1,2,4]triazine-7-carbonitrile], 4.09 nM.
Next, `N#Cc1cc(Nc2nc(NC3CC3)c3ncc(C#N)n3n2)c(Cl)c(N2CCN(C3CN(C(=O)C4CCCO4)C3)CC2)c1` (stereo not drawn) [Example 517, 2-[(2-chloro-5-cyano-3-{4-[1-(oxolane-2-carbonyl)azetidin-3-yl]piperazin-1-yl}phenyl)amino]-4-(cyclopropylamino)imidazo[2,1-f][1,2,4]triazine-7-carbonitrile]: 3.66 nM.
For the compound `CC(C)OC(=O)N1CC(N2CCN(c3cc(C#N)cc(Nc4nc(NC5CC5)c5ncc(C#N)n5n4)c3Cl)CC2)C1` [Example 518, propan-2-yl 3-[4-(2-chloro-5-cyano-3-{[7-cyano-4-(cyclopropylamino)imidazo[2,1-f][1,2,4]triazin-2-yl]amino}phenyl)piperazin-1-yl]azetidine-1-carboxylate], the IC50 came to 10.3 nM.
As to `N#Cc1cc(Nc2nc(NC3CC3)c3ncc(C#N)n3n2)c(Cl)c(N2CCN(C3CN(C(=O)CC(N)=O)C3)CC2)c1` [Example 519, 3-{3-[4-(2-chloro-5-cyano-3-{[7-cyano-4-(cyclopropylamino)imidazo[2,1-f][1,2,4]triazin-2-yl]amino}phenyl)piperazin-1-yl]azetidin-1-yl}-3-oxopropanamide], the IC50 was found to be 3.2 nM.
Turning to `CCOC1CC1C(=O)N1CC(N2CCN(c3cc(C#N)cc(Nc4nc(NC5CC5)c5ncc(C#N)n5n4)c3Cl)CC2)C1` (stereo not drawn) [Example 520, 2-[(2-chloro-5-cyano-3-{4-[1-(2-ethoxycyclopropane-carbonyl)azetidin-3-yl]piperazin-1-yl}phenyl)amino]-4-(cyclopropylamino)imidazo[2,1-f][1,2,4]triazine-7-carbonitrile], the IC50 turned out to be 4.96 nM.
Next, `CO[C@@H](C)C(=O)N1CC(N2CCN(c3cc(C#N)cc(Nc4nc(NC5CC5)c5ncc(C#N)n5n4)c3Cl)CC2)C1` [Example 521, 2-{[2-chloro-5-cyano-3-(4-{1-[(2S)-2-methoxypropanoyl]azetidin-3-yl}piperazin-1-yl)phenyl]amino}-4-(cyclopropylamino)imidazo[2,1-f][1,2,4]triazine-7-carbonitrile]: 3.35 nM.
